How the values were obtained:
CYP2D6 = target: T1, CYP2D6 (Homo sapiens, UniProt P10635); experiment: Cytochrome P450 inhibition assay (cocktail method, human liver microsomes), dextromethorphan O-demethylation; format: in vitro ADME
T1 construct: pooled human liver microsomes (HLMs, XTreme 200, XenoTech, Lenexa, KS, USA); tissue XenoTech XTreme 200; host or cells: pooled human liver microsomes
Protocol: (§1) The inhibitory effects of KS15 and compound 5d on the metabolism of five cytochrome P450 (P450) probe substrates were evaluated using previous methods with slight modifications. The following P450 probe substrates were used: phenacetin (100 μM) for CYP1A2, tolbutamide (100 μM) for CYP2C9, omeprazole (20 μM) for CYP2C19, dextromethorphan (5 μM) for CYP2D6, and midazolam (5 μM) for CYP3A. Incubation mixtures containing pooled human liver microsomes (HLMs, XTreme 200, XenoTech, Lenexa, KS, USA), P450 probe substrates, and KS15 or compound 5d (final concentrations: 0, 0.5, 2, 5, 20, and 50 μM) were preincubated for 5 min at 37 °C. […] After centrifugation at 18,000× g (5 min, 4 °C), supernatant aliquots were analyzed by liquid chromatography-tandem mass spectrometry (LC-MS/MS). […]
(§2) All metabolites and IS were separated on a Kinetex C18 column (100 mm × 2.1 mm, 2.6 μm ID., Phenomenex, Torrance, CA, USA) and analyzed using an LC-MS/MS system (LCMS 8060, Shimadzu, Tokyo, Japan) equipped with an electrospray ionization (ESI) interface. […]
(§3) The EC50 values for luciferase reporter assay were calculated based on a logistic four-parametric equation using the mean values of intrinsic activation (SigmaPlot 10.0; Systat Software Inc., San Jose, CA, USA). […] Pharmacokinetic parameters were calculated using non-compartmental analysis (WinNonlin v.8.3; Pharsight, Mountain View, CA, USA). […]

CYP3A = experiment: Cytochrome P450 inhibition assay (cocktail method, human liver microsomes), midazolam 1'-hydroxylation; format: in vitro ADME; settings: pooled human liver microsomes, probe midazolam (5 μM)
Protocol: as §1, §2, §3

[1] = In vivo pharmacokinetics in rats after IV or PO administration; design: species or system Sprague Dawley (SD) male rats; settings: male, Sprague Dawley, rat, oral 5 mg/kg, measured as 2d form in plasma
Protocol: For in vivo pharmacokinetic studies, Sprague Dawley (SD) male rats (weighing 270–280 g) were purchased from Orient Bio Inc. (Seongnam, Korea). Experimental protocols involving animal use were carefully reviewed and approved by the Institutional Animal Care and Use Committee at Gachon University. Prior to studies, animals fasted for 18 h, but with free access to water. Compound 5d or 2d was dissolved in a dosing vehicle consisting of PEG400, normal saline, and dimethylsulfoxide in a ratio of 6:3:1 (v/v/v%) to make a 2 mg/mL dosing solution. […]
To determine drug concentration levels in plasma, the Agilent 1290 UHPLC-DAD system with Polar RP column (3 μm, 150 mm × 2 mm ID., Phenomenex) was used for chromatographic separations. […] The total run time was 4.4 min for samples which were monitored at 260 nm. […]
The EC50 values for luciferase reporter assay were calculated based on a logistic four-parametric equation using the mean values of intrinsic activation (SigmaPlot 10.0; Systat Software Inc., San Jose, CA, USA). The IC50 and t1/2 values for the cytochrome P450 inhibition assay and metabolic stability test were calculated by WinNonlin software (Pharsight, Mountain View, CA, USA). Pharmacokinetic parameters were calculated using non-compartmental analysis (WinNonlin v.8.3; Pharsight, Mountain View, CA, USA). […]

T1 sequence (P10635 whole entry): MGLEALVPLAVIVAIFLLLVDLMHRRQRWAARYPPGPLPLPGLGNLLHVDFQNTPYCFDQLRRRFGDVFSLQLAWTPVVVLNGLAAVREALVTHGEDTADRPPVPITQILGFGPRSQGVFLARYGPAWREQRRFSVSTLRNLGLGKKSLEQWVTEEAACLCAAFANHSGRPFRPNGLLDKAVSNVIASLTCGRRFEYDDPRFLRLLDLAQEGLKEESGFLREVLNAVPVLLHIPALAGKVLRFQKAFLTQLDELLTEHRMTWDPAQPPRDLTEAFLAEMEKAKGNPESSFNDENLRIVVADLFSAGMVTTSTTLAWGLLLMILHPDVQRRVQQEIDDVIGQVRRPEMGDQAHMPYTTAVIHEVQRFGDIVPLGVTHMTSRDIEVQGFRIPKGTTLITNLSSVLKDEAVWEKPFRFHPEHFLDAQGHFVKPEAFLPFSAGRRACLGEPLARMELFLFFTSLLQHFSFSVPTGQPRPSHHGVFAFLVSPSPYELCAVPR

SMILES | IC50 (CYP2D6) [µM] | IC50 at 10 min (CYP3A) [µM] | half-life [1] [h] | AUC ([1]; read-out: AUCinfinite (converted)) [µg·h/mL]
COC(=O)COc1cccc(C(C)=NOCc2ccc([N+](=O)[O-])cc2)c1 [Compound 5d, Methyl 2-(3-(1-(((4-nitrobenzyl)oxy)imino)ethyl)phenoxy)acetate] | > 50 | > 50 | – | –
CC(=NOCc1ccc([N+](=O)[O-])cc1)c1cccc(OCC(=O)O)c1 [Compound 2d, 2-(3-(1-(((4-nitrobenzyl)oxy)imino)ethyl)phenoxy)acetic acid] | – | – | 6.52 ± 0.793 | 184
